Type in all cases: cell-based
Data set [1] concerns Acinetobacter baumannii 872842. Conditions: 872842.
In data set [2] the test system is Acinetobacter baumannii DSM 30008. Conditions: DSM 30008. A digest of the protocol: (§1)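 Read-out is the minimal inhibitory concentration in μg/mL, taken as the lowest peptide level without visible growth after 18-20 h at 35° C. Testing followed CLSI broth microdilution in cation-adjusted Mueller-Hinton II broth plus 0.002% Polysorbate 80, with roughly 10^6 CFU/mL.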

The subject of the next data set is Escherichia coli 926415. The following applies: 926415.
Data set [3] deals with Escherichia coli ATCC 25922. The following applies: ATCC 25922. The method, boiled down: as §1
The subject of data set [4] is Klebsiella pneumoniae 968733. The following applies: 968733.
The subject of data set [5] is Klebsiella pneumoniae SSI #3010. The following applies: SSI #3010. The method, boiled down: as §1
Data set [6] concerns Pseudomonas aeruginosa ATCC 27853. The following applies: ATCC 27853. The method, boiled down:
as §1

For data set [7], the system named is human red blood cells (hRBC). Nature of the data set: Hemolysis of human red blood cells. Conditions: red cells of human, 1 h, 100 μg/mL. A digest of the protocol:
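Washed fresh human erythrocytes (20% v/v, ~0.9×10^9 cells/mL final) were incubated with peptides at 100 μg/mL for 1 h at 37 °C with shaking. Supernatant OD540 measured; hemolysis expressed as % of 2.5% Triton X-100 lysis, with PBS/0.001% acetic acid as 0%.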

The values that follow come from US10829520B2, “Beta-hairpin peptidomimetics” (POLYPHOR AG, priority 2015, dated 2020).

Each structure is given as a SMILES string. Where a SMILES comes first, the peptide text is derived from it. Bridges are numbered along the chain shown (N, C = ends). [ ]: non-standard residue; d: D form. Tle = CC(C)(C)[C@H](N)C(=O)O; dDab = NCC[C@@H](N)C(=O)O; Nle = CCCC[C@H](N)C(=O)O; Orn = NCCC[C@H](N)C(=O)O; Dab = NCC[C@H](N)C(=O)O

On to `CCCC[C@@H]1NC(=O)[C@@H]2CCCN2C(=O)[C@H]2CCCN2C(=O)[C@H](CO)NC(=O)[C@H](CO)NC(=O)[C@H](C(C)(C)C)NC(=O)[C@H](CCN)NC(=O)[C@H](Cc2c[nH]c3ccccc23)NC(=O)[C@@H](N)CSSC[C@@H](C(=O)N[C@H](Cc2c[nH]c3ccccc23)C(=O)N[C@@H](CCN)C(=O)N[C@H]2CCNC(=O)[C@H]([C@@H](C)O)NC(=O)[C@H](CCN)NC(=O)[C@H](CCN)NC(=O)[C@H](CC(C)C)NC(=O)[C@@H](Cc3ccccc3)NC(=O)[C@H](CCN)NC2=O)NC(=O)[C@H](CCCN)NC(=O)[C@H](CCN)NC(=O)[C@H](Cc2ccc(O)cc2)NC(=O)[C@H](CO)NC1=O` [Ex. 202] (H-CW[Dab][Tle]SS[dP]P[Nle]SY[Dab][Orn]C[dW][Dab][Dab][Dab][dF]L[Dab][Dab]T; disulfide 1-14; lactam 17-C), for which the “Acinetobacter baumannii 872842 MIC” value in data set [1] was found to be 0.5 µg/mL. Also, the “Acinetobacter baumannii DSM 30008 MIC” value in data set [2] was found to be 1 µg/mL. Moreover, the “Escherichia coli 926415 MIC” value in the data set with Escherichia coli 926415 came to 0.5 µg/mL. The “Escherichia coli ATCC 25922 MIC” value in data set [3] was 0.25 µg/mL. Also, the “Klebsiella pneumoniae 968733 MIC” value in data set [4] amounted to 2 µg/mL. Moreover, the “Klebsiella pneumoniae SSI #3010 MIC” value in data set [5] was 1 µg/mL. Further, the “Pseudomonas aeruginosa ATCC 27853 MIC” value in data set [6] stood at 1 µg/mL. For the same compound, the “Hemolysis at 100 μg/mL” value in data set [7] was 2%.

On to `CCCC[C@@H]1NC(=O)[C@@H]2CCCN2C(=O)[C@H]2CCCN2C(=O)[C@H](CO)NC(=O)[C@H](CO)NC(=O)[C@H](C(C)(C)C)NC(=O)[C@H](CCN)NC(=O)[C@H](Cc2c[nH]c3ccccc23)NC(=O)[C@@H](N)CSSC[C@@H](C(=O)N[C@@H](CCC(N)=O)C(=O)N[C@H](CCN)C(=O)N[C@H]2CCNC(=O)[C@H]([C@@H](C)O)NC(=O)[C@H](CCN)NC(=O)[C@H](CCN)NC(=O)[C@H](CC(C)C)NC(=O)[C@@H](Cc3ccccc3)NC(=O)[C@H](CCN)NC2=O)NC(=O)[C@H](CCCN)NC(=O)[C@H](CCN)NC(=O)[C@H](Cc2ccc(O)cc2)NC(=O)[C@H](CO)NC1=O` [Ex. 203] (H-CW[Dab][Tle]SS[dP]P[Nle]SY[Dab][Orn]CQ[dDab][Dab][Dab][dF]L[Dab][Dab]T; disulfide 1-14; lactam 17-C), for which, in data set [1], the “Acinetobacter baumannii 872842 MIC” value came out at 0.5 µg/mL. The “Acinetobacter baumannii DSM 30008 MIC” value in data set [2] was determined as 2 µg/mL. Besides, the “Escherichia coli 926415 MIC” value with Escherichia coli 926415 stood at 0.25 µg/mL. For the same compound, in data set [3], the “Escherichia coli ATCC 25922 MIC” value stood at 0.5 µg/mL. Moreover, in data set [4], the “Klebsiella pneumoniae 968733 MIC” value is 4 µg/mL. Further, in data set [5], the “Klebsiella pneumoniae SSI #3010 MIC” value turned out to be 1 µg/mL. The “Pseudomonas aeruginosa ATCC 27853 MIC” value in data set [6] amounted to 1 µg/mL. The “Hemolysis at 100 μg/mL” value in data set [7] is reported as below 1%.

Consider `CCCC[C@@H]1NC(=O)[C@@H]2CCCN2C(=O)[C@H]2CCCN2C(=O)[C@H](CO)NC(=O)[C@H](CO)NC(=O)[C@H](C(C)(C)C)NC(=O)[C@H](CCN)NC(=O)[C@H](Cc2c[nH]c3ccccc23)NC(=O)[C@@H](N)CSSC[C@@H](C(=O)N[C@@H](C(=O)N[C@H](CCN)C(=O)N[C@H]2CCNC(=O)[C@H]([C@@H](C)O)NC(=O)[C@H](CCN)NC(=O)[C@H](CCN)NC(=O)[C@H](CC(C)C)NC(=O)[C@@H](Cc3ccccc3)NC(=O)[C@H](CCN)NC2=O)[C@H](C)O)NC(=O)[C@H](CCCN)NC(=O)[C@H](CCN)NC(=O)[C@H](Cc2ccc(O)cc2)NC(=O)[C@H](CO)NC1=O` [Ex. 204] (H-CW[Dab][Tle]SS[dP]P[Nle]SY[Dab][Orn]C[dT][dDab][Dab][Dab][dF]L[Dab][Dab]T; disulfide 1-14; lactam 17-C), for which, in data set [1], the “Acinetobacter baumannii 872842 MIC” value came out at 0.25 µg/mL. Besides, the “Acinetobacter baumannii DSM 30008 MIC” value in data set [2] came out at 0.5 µg/mL. In the data set with Escherichia coli 926415, the “Escherichia coli 926415 MIC” value came to 0.125 µg/mL. Further, the “Escherichia coli ATCC 25922 MIC” value in data set [3] was 0.25 µg/mL. Further, the “Klebsiella pneumoniae 968733 MIC” value in data set [4] was determined as 0.5 µg/mL. In addition, the “Klebsiella pneumoniae SSI #3010 MIC” value in data set [5] came out at 0.25 µg/mL. Further, the “Pseudomonas aeruginosa ATCC 27853 MIC” value in data set [6] was 0.5 µg/mL. Besides, the “Hemolysis at 100 μg/mL” value in data set [7] came to 3%.
